Reference: patent US9376420B2 (YUHAN CORPORATION, priority 2012, dated 2016)

Molecular target: T1, human LXRβ (Homo sapiens, UniProt P55055)
T1 construct: expressed in transfected cells; host or cells: HEK293 cells (ATCC CRL-1573), transient transfection with pFA-hLXRβ/GAL4 and pUAS
T1 sequence (P55055 222-460 limits assumed): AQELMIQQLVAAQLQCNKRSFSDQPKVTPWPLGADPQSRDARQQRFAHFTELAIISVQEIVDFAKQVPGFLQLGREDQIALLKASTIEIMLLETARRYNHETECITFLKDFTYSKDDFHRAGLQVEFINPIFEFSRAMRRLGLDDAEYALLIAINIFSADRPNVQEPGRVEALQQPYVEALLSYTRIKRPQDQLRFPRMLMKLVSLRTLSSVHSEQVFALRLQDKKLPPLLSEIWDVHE
Assay: Assay for Transcriptional Activity of LXRβ (GAL4-hLXRβ LBD luciferase reporter, transient transfection)
Assay type: cell-based
Settings: HEK293 cells transfected with pFA-hLXRβ/GAL4 and pUAS, 24 hours; for Emax: fold value in comparison with the control (DMSO-treated group); for EC50: increase of transcriptional activity of LXRβ, average of three independent tests
How it was run: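 HEK293 cells transiently co-transfected with GAL4-hLXRβ LBD and 5×GAL4-UAS luciferase reporter, treated 24 h at 37 °C with compounds over 9 points (0.01–50 μM, half-log). Luminescence read after lysis; EC50 from four-parameter fit, mean of three independent tests, with a known LXR agonist as positive control.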

SMILES | Emax [fold] | EC50 [nM]
CN(CCCS(=O)(=O)c1cccc(-c2ccc(C3CC(C(O)(C(F)(F)F)C(F)(F)F)=NN3c3ccc(F)cc3F)cc2)c1)C(=O)OC(C)(C)C (centres unmarked) [Example 395, 5-{3′-[3-(N-BOC-N-methyl-amino)-propane-1-sulfonyl]-biphenyl-4-yl}-1-(2,4-difluoro-phenyl)-3-(di-(trifluoromethyl)-hydroxy-methyl)-4,5-dihydro-1H-pyrazole] | 83 | 0.4
CS(=O)(=O)N1CCN(c2ccc(C3CC(C(O)(C(F)(F)F)C(F)(F)F)=NN3c3ccc(F)cc3F)cc2)CC1 (centres unmarked) [Example 406, 1-(2,4-difluoro-phenyl)-5-[4-(4-methanesulfonyl-piperazin-1-yl)-phenyl]-3-[di-(trifluoromethyl)-hydroxy-methyl]-4,5-dihydro-1H-pyrazole] | 53 | 966
OC(C1=NN(c2ccccc2Cl)C(c2ccc(-c3cnc4ccccc4c3)cc2)C1)(C(F)(F)F)C(F)(F)F (centres unmarked) [Example 259, 1-(2-chloro-phenyl)-5-(4-quinolin-3-yl-phenyl)-3-[di-(trifluoromethyl)-hydroxy-methyl]-4,5-dihydro-1H-pyrazole] | 57 | 519
CS(=O)(=O)N1CCN(c2ccnc(C3CC(C(F)(F)C(F)(F)F)=NN3c3ccc(F)cc3F)c2)CC1 (centres unmarked) [Example 183, 1-(2,4-difluoro-phenyl)-5-[4-(4-methanesulfonyl-piperazin-1-yl)-pyridin-2-yl]-3-pentafluoroethyl-4,5-dihydro-1H-pyrazole] | 79 | 3280
OC(C1=NN(c2ccccc2Cl)C(c2ccc(-c3ccc(F)c(Cl)c3)cc2)C1)(C(F)(F)F)C(F)(F)F (centres unmarked) [Example 256, 5-(3′-chloro-4′-fluoro-biphenyl-4-yl)-1-(2-chloro-phenyl)-3-[di-(trifluoromethyl)-hydroxy-methyl]-4,5-dihydro-1H-pyrazole] | 51 | 729
O=S(=O)(C1CC1)N1CCCN(c2ccc(C3CC(C(O)(C(F)(F)F)C(F)(F)F)=NN3c3ccccc3Cl)cc2)CC1 (centres unmarked) [Example 325, 1-(2-chloro-phenyl)-5-[4-(4-cyclopropanesulfonyl-homopiperazin-1-yl)-phenyl]-3-[di-(trifluoromethyl)-hydroxy-methyl]-4,5-dihydro-1H-pyrazole] | 53 | 800
Cc1ccc(-c2ccc(C3CC(C(O)(C(F)(F)F)C(F)(F)F)=NN3c3ccccc3Cl)cc2)c(F)c1 (centres unmarked) [Example 265, 1-(2-chloro-phenyl)-5-(2′-fluoro-4′-methyl-biphenyl-4-yl)-3-[di-(trifluoromethyl)-hydroxy-methyl]-4,5-dihydro-1H-pyrazole] | 97 | 239
COc1ncc(-c2cccc(C3CC(C(F)(F)C(F)(F)F)=NN3c3ccc(F)cc3F)c2)cc1CO (centres unmarked) [Example 90, 1-(2,4-difluoro-phenyl)-5-[3-(5-hydroxymethyl-6-methoxy-pyridin-3-yl)-phenyl]-3-pentafluoroethyl-4,5-dihydro-1H-pyrazole] | 33 | 2650
CS(=O)(=O)N1CC=C(c2ccc(C3CC(C(O)(C(F)(F)F)C(F)(F)F)=NN3c3ccccc3Cl)s2)CC1 (centres unmarked) [Example 418, 1-(2-chloro-phenyl)-5-[5-(1-methanesulfonyl-1,2,3,6-tetra hydropyridin-4-yl)-thiophen-2-yl]-3-[di-(trifluoromethyl)-hydroxy-methyl]-4,5-dihydro-1H-pyrazole] | 106 | 373
O=S(=O)(C1CC1)N1CCN(c2cccc(C3CC(C(F)(F)C(F)(F)F)=NN3c3ccc(F)cc3F)c2)CC1 (centres unmarked) [Example 97, 5-[3-(4-cyclopropanesulfonyl-piperazin-1-yl)-phenyl]-1-(2,4-difluoro-phenyl)-3-pentafluoroethyl-4,5-dihydro-1H-pyrazole] | 69 | 3090
COC(=O)c1cncc(-c2ccc(C3CC(C(O)(C(F)(F)F)C(F)(F)F)=NN3c3ccccc3Cl)cc2)c1 (centres unmarked) [Example 273, 1-(2-chloro-phenyl)-5-[4-(5-methoxycarbonyl-pyridin-3-yl)-phenyl]-3-[di-(trifluoromethyl)-hydroxy-methyl]-4,5-dihydro-1H-pyrazole] | 45 | 1150
CS(=O)(=O)N1CCN(c2cccc(C3CC(C(F)(F)C(F)(F)F)=NN3c3ccc(F)cc3F)c2)CC1 (centres unmarked) [Example 96, 1-(2,4-difluoro-phenyl)-5-[3-(4-methanesulfonyl-piperazin-1-yl)-phenyl]-3-pentafluoroethyl-4,5-dihydro-1H-pyrazole] | 67 | 3360
CSc1cccc(-c2ccnc(C3CC(C(F)(F)C(F)(F)F)=NN3c3ccc(F)cc3F)c2)c1 (centres unmarked) [Example 172, 1-(2,4-difluoro-phenyl)-5-[4-(3-methylsulfanyl-phenyl)-pyridin-2-yl]-3-pentafluoroethyl-4,5-dihydro-1H-pyrazole] | 73 | 1020
O=C(CC1CCCC1)N1CC=C(c2cccc(C3CC(C(O)(C(F)(F)F)C(F)(F)F)=NN3c3ccccc3Cl)c2)CC1 (centres unmarked) [Example 232, 1-(2-chloro-phenyl)-5-{3-[1-(2-cyclopentyl-acetyl)-1,2,3,6-tetrahydropyridin-4-yl]-phenyl}-3-[di-(trifluoromethyl)-hydroxy-methyl]-4,5-dihydro-1H-pyrazole] | 77 | 70
CN(CCO)S(=O)(=O)c1cccc(-c2ccc(C3CC(C(O)(C(F)(F)F)C(F)(F)F)=NN3c3ccccc3Cl)cc2)c1 (centres unmarked) [Example 283, 1-(2-chloro-phenyl)-5-{3′-[(2-hydroxy-ethyl)-methyl-sulfamoyl]-biphenyl-4-yl}-3-[di-(trifluoromethyl)-hydroxy-methyl]-4,5-dihydro-1H-pyrazole] | 51 | 270
Cc1ncccc1-c1ccc(C2CC(C(O)(C(F)(F)F)C(F)(F)F)=NN2c2ccc(F)cc2F)cc1 (centres unmarked) [Example 376, 1-(2,4-difluoro-phenyl)-5-(4-(2-methyl-pyridin-3-yl)-phenyl)-3-[di-(trifluoromethyl)-hydroxy-methyl]-4,5-dihydro-1H-pyrazole] | 39 | 325
CS(=O)(=O)c1ccc(-c2cccc(N3N=C(C(O)(C(F)(F)F)C(F)(F)F)CC3c3ccccc3Cl)c2)cn1 (centres unmarked) [Example 435, 5-(2-chloro-phenyl)-1-{3-[6-(methylsulfonyl)-pyridin-3-yl]-phenyl}-3-[di-(trifluoromethyl)-hydroxy-methyl]-4,5-dihydro-1H-pyrazole] | 25 | 965
CS(=O)(=O)c1cc(F)c(-c2ccc(C3CC(C(O)(C(F)(F)F)C(F)(F)F)=NN3c3ccc(F)cc3F)cc2)c(F)c1 (centres unmarked) [Example 389, 1-(2,4-difluoro-phenyl)-5-(2′,6′-difluoro-4′-methanesulfonyl-biphenyl-4-yl)-3-[di-(trifluoromethyl)-hydroxy-methyl]-4,5-dihydro-1H-pyrazole] | 29 | 503
CS(=O)(=O)c1cccc(-c2ccc(C3CC(C(O)(C(F)(F)F)C(F)(F)F)=NN3c3ccccc3Cl)c(F)c2)c1 (centres unmarked) [Example 347, 1-(2-chloro-phenyl)-5-(3-fluoro-3′-methanesulfonyl-biphenyl-4-yl)-3-[di-(trifluoromethyl)-hydroxy-methyl]-4,5-dihydro-1H-pyrazole] | 62 | 42
